Results: patent US5238926A, “Anti-fungal agents” (priority 1992, dated 1993)
≈ marks a conversion by molar mass, not a printed value.

Experiments:
[1] = system: Resistant Strains (Candida albicans C79, C6, C8, C31, C54, C70, C104, C138, C140; Candida stellatoidea C45); experiment: In vitro anti-fungal activity, microtiter minimum inhibitory concentration (MIC) test, resistant strains (MIC-R); type: cell-based; conditions: 48 h, pH 5.4, read-out: MIC-R
Method: (§1) The minimum inhibitory concentrations (MIC-R and MIC-S) were determined in accordance with the procedure set forth just below.
(§2) In vitro anti-fungal activity was determined in microtiter minimum inhibitory concentration (MIC) tests using Yeast Nitrogen […] (YNB without amino acids, Difco., Detroit, Mich.) at pH 5.4. Yeasts were grown overnight in Sabouraud Dextrose Broth. at 28° C. with shaking, and concentrations adjusted in sterile saline using a spectrophoptometer at 540 mμ. Compounds were dissolved in various vehicles and diluted in media to twice the final concentrations. The Cetus Pro/Pette system was used to serially dilute 50 μl in round bottom 96 well plates (Falcon, Lincoln Park, NJ.). The turbidometrically adjusted yeast suspensions were diluted 1:3,000 in YNB. These dilutions when added to the wells, produced a final inoculum of 3×10^3 /ml. Plates were incubated at 37° C. for 48 hours. MICs were defined as the lowest concentrations of compound that prevented visible growth. MICs were taken against the following organisms and expressed in the table above as the geometric mean. MIC-R and MIC-S mean respectively, MICs taken against resistant and sensitive strains.
Candida stellatoidea C45

[2] = In vitro anti-fungal activity, microtiter minimum inhibitory concentration (MIC) test, sensitive strains (MIC-S); type: cell-based; conditions: 48 h, pH 5.4, read-out: MIC-S
Method: as §1, §2
Candida parapsilosis C67
Candida tropicalis C112
Torulopsis glabrata C95
Candida pseudotropicalis C967
Candida gullermondii C137
Sacchararomyces mutant C147

SMILES | MIC [1] | MIC [2]
CCCCCCCCCCCCNC(=O)[C@@H](NC(=O)[C@@H](N)C(C)CSC)[C@H]1O[C@@H](n2ccc(=O)[nH]c2=O)[C@H](O)[C@@H]1O (stereo partly shown) | 23 µg/mL (≈ 38.3 µM) | 34 µg/mL (≈ 56.7 µM)
CCCCCCCCCCCCNC(=O)[C@@H](NC(=O)[C@@H](N)CCCC)[C@H]1O[C@@H](n2ccc(=O)[nH]c2=O)[C@H](O)[C@@H]1O | 13 µg/mL (≈ 22.9 µM) | 19.7 µg/mL (≈ 34.7 µM)
C=C[C@@H](C)[C@H](N)C(=O)N[C@H](C(=O)NCCCCCCCCCCCC)[C@H]1O[C@@H](n2ccc(=O)[nH]c2=O)[C@H](O)[C@@H]1O [6'-dodecylamido-5-N-[2-S-amino-3-R-methyl-4-pentenoyl]-UPOC] | 18 µg/mL (≈ 31.8 µM) | 26 µg/mL (≈ 46 µM)
CCCCCCCCCCC(N)C(=O)N[C@H](C(N)=O)[C@H]1O[C@@H](n2ccc(=O)[nH]c2=O)[C@H](O)[C@@H]1O (stereo partly shown) | > 256 µg/mL | > 256 µg/mL
CCCCCCCCCCCCNC(=O)[C@@H](NC(=O)[C@@H](N)CCOC)[C@H]1O[C@@H](n2ccc(=O)[nH]c2=O)[C@H](O)[C@@H]1O | 52 µg/mL (≈ 91.3 µM) | 111 µg/mL (≈ 195 µM)
CCCCCCCCCCCCNC(=O)[C@@H](NC(=O)[C@@H](N)CC[S+](C)[O-])[C@H]1O[C@@H](n2ccc(=O)[nH]c2=O)[C@H](O)[C@@H]1O (stereo partly shown) | 181 µg/mL (≈ 301 µM) | 181 µg/mL (≈ 301 µM)
CCCCCCCCCCCCNC(=O)[C@@H](NC(=O)[C@@H](N)CSCc1ccccc1)[C@H]1O[C@@H](n2ccc(=O)[nH]c2=O)[C@H](O)[C@@H]1O | 111 µg/mL (≈ 171 µM) | > 147 µg/mL
CCCCCCCCCCCCNC(=O)[C@@H](NC(=O)C1(N)CC2CCC1C2)[C@H]1O[C@@H](n2ccc(=O)[nH]c2=O)[C@H](O)[C@@H]1O (stereo partly shown) | 104 µg/mL (≈ 176 µM) | 315 µg/mL (≈ 532 µM)
